Data reported in patent publication US20130288897A1, “SYNERGISTIC PESTICIDAL COMPOSITIONS” (Dow AgroSciences LLC, priority 2012, published 2013).
“And” between values parts separate entries of the source, which are not always exact repeats. Equal entries are not always repeated.

Tested on: cotton aphid (CA) Aphis gossypii
Assay: Cotton aphid track-sprayer test on cotton: Compound A or imidacloprid with Glyphomax Plus (glyphosate) and AMS (Example XV)
Type: in vivo
Experimental: Glyphosate resistant cotton plants (Gossypium hirsutum, cv ‘DP493’) were trimmed to 1 true leaf and infested with mixed stages of cotton aphid (CA) Aphis gossypii 24 h prior to application. Mixed developmental stage CA were infested onto the upper surface of each treated leaf by transferring infested foliage from an insectary colony. Each plant was infested with approximately equal numbers of CA based on visual estimation of aphid density on the infested material. Infested plants were held in the growth chamber (L:D 16:8 and 25° C.). Glyphosate (Glyphomax Plus, Dow AgroSciences, LLC, Indianapolis, Ind.) was mixed with water at a rate equivalent to 32 oz/Ac/20 gallons. […] High rate Compound A concentrations were created by diluting Compound A technical material with acetone to achieve a 10 ppm solution. […] When applied through a track sprayer calibrated to 200 L/Ha these concentrations generated use rates of 0.2, 0.04 and 0.008 g/Ha. […] Nozzle height above the canopy was held constant at ca. 30 cm. Plants were evaluated after 3 days from the time of infestation by counting all live cotton aphids on each plant.
For the purposes of this experiment, the compositions having lower rates of the insecticide were not analyzed. Percent control for all treatments was calculated using the rep average for the untreated plants. […] For all tests, measured efficacy (% Control) data were compared to calculated Colby values (Colby, S. R. 1967. Calculating Synergistic and Antagonistic Responses of Herbicide Combinations. Weeds 15:20-22) using a 2 sided T-test (Minitab). […] The formula used to calculate the Colby value for mixtures of Compound A and either herbicide or AMS was:
The formula was adapted for compositions including Compound A, herbicide and AMS as follows: […]

[1] = 0.2 g insecticide/Ha with Glyphomax Plus 0.0125 ml/ml + AMS 18 mg/ml, Rep 1-5
[2] = 0.2 g insecticide/Ha with Glyphomax Plus 0.0125 ml/ml, Rep 1-5

| Structure (SMILES) | % control Negatives to zero [1] | Calculated Colby values [1] | percent control [1] | % control Negatives to zero [2] | percent control [2] | Calculated Colby values (0.2 g insecticide/Ha with Glyphomax Plus 0.0125 ml/ml, Rep 1-5, expected additive control) | CA Counts (0.2 g insecticide/Ha, no herbicide, no AMS, Rep 1-5, live aphids per plant after 3 days) | percent control (0.2 g insecticide/Ha, no herbicide, no AMS, Rep 1-5, vs rep average of untreated plants) | synergy assessment (measured control vs Colby values) (insecticide with AMS and herbicide (Glyphomax Plus)) | synergy assessment (measured control vs Colby values) (insecticide with the herbicide (Glyphomax Plus)) |
| --- | --- | --- | --- | --- | --- | --- | --- | --- | --- | --- |
| CC(c1ccc(C(F)(F)F)nc1)S(C)(=O)=NC#N (stereo not shown) [Compound A, [1-(6-Trifluoromethylpyridin-3-yl)ethyl](methyl)-oxido-λ^4-sulfanylidenecyanamide] | 94.9% and 100.0% | 71.7 and 78.5 and 75.1 and 77.5 and 71.8 | 100.0% and 94.9% | 96.2% and 100.0% and 91.7% and 98.1% | 100.0% and 91.7% and 98.1% and 96.2% | 71.7 and 78.5 and 75.1 and 75.3 and 69.3 | 24 and 20 and 12 and 15 and 13 | 71.7% and 78.5% and 75.1% and 75.3% and 69.3% | – | – |
| O=[N+]([O-])NC1=NCCN1Cc1ccc(Cl)nc1 [Imidacloprid, imidacloprid, reference compound] | – | – | – | – | – | – | – | – | not improved compared to imidacloprid alone | not present |
